Reference: patent US20230416228A1 (Forkhead Biotherapeutics, Inc., priority 2020, published 2023)

Target: T1, human FOXO1 (constitutively active form Thr24Ala, Ser256Ala, Ser319Ala) (Homo sapiens, UniProt Q12778, S256A/S319A/T24A)
T1 construct: expressed in transfected cells; host or cells: HEK293 cells transfected with pcDNA3.1 plasmid
Experiment: FOXO1 inhibitor activity assay: cell-based transcriptional (luciferase) reporter assay in HEK293 cells
Conditions: HEK293 cells transfected with insulin response element firefly luciferase reporter, FOXO1 and Renilla luciferase; 10-point dose response 50 μM to 2.5 nM; 24 hours
In short: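 IC50 and maximal inhibition were fitted by 4-parameter logistic regression on normalized firefly/Renilla luciferase ratios. The 0% reference used RFP in place of FOXO1, and the 100% reference was DMSO-only with all plasmids.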

T1 sequence (Q12778 whole entry T24A/S256A/S319A): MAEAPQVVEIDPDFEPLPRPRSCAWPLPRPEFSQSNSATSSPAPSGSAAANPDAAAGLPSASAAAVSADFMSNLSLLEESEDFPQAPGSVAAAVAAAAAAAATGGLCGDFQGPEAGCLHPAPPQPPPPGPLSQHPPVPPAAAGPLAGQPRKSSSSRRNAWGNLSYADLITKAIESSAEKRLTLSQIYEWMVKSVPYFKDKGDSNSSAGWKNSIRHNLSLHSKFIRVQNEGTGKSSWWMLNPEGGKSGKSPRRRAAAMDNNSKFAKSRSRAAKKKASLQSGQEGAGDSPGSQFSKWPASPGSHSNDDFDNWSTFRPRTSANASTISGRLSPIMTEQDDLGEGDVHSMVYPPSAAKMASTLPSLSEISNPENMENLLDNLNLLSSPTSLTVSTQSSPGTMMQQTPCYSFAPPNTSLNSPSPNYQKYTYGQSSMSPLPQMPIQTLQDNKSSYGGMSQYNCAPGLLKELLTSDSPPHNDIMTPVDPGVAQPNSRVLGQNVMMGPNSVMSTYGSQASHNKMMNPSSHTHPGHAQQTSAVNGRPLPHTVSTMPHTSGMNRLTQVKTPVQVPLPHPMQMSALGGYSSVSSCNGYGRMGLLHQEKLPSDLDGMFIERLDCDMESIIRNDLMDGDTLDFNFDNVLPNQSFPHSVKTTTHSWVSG

SMILES | IC50 [nM]
COC1CCN(c2ccc(C(=O)Nc3cc(-c4nc5cccc(F)c5[nH]4)n(C)n3)cn2)CC1 [Compound A-157] | 100 to 300
Cn1nc(NC(=O)c2ccc(N3CCN(CCO)CC3)nc2)cc1-c1nc2cccc(F)c2[nH]1 [Compound A-158] | 100 to 300
Cn1nc(NC(=O)c2ccc(N3CCN(C4COC4)CC3)nc2)cc1-c1nc2cc(F)ccc2[nH]1 [Compound A-160] | 300 to 1000
COc1ccc2nc(-c3cc(NC(=O)c4ccc(OC)c(Cl)c4)n[nH]3)cn2c1 [Compound A-161, 3-chloro-4-methoxy-N-[5-(6-methoxyimidazo[1,2-a]pyridin-2-yl)-1H-pyrazol-3-yl]benzamide] | 100 to 300
COc1ccn2cc(-c3cc(NC(=O)c4ccc(OC)c(Cl)c4)n[nH]3)nc2c1 [Compound A-162, 3-chloro-4-methoxy-N-[5-(7-methoxyimidazo[1,2-a]pyridin-2-yl)-1H-pyrazol-3-yl]benzamide] | > 1000
COc1ccc(C(=O)Nc2cc(-c3cn4ccc(C)cc4n3)[nH]n2)cc1Cl [Compound A-163, 3-chloro-4-methoxy-N-[5-(7-methylimidazo[1,2-a]pyridin-2-yl)-1H-pyrazol-3-yl]benzamide] | 300 to 1000
COCCOc1ccc(C(=O)Nc2cc(-c3nc4cccc(F)c4[nH]3)n(C)n2)cc1Cl [Compound A-164, 3-chloro-N-[5-(7-fluoro-1H-benzimidazol-2-yl)-1-methyl-pyrazol-3-yl]-4-(2-methoxyethoxy)benzamide] | < 100
Cn1nc(NC(=O)c2ccc(OCCO)c(Cl)c2)cc1-c1nc2cccc(F)c2[nH]1 [Compound A-165, 3-chloro-N-[5-(7-fluoro-1H-benzimidazol-2-yl)-1-methyl-pyrazol-3-yl]-4-(2-hydroxyethoxy)benzamide] | < 100
COCCOc1ccc(C(=O)Nc2cc(-c3nc4cc(F)ccc4[nH]3)n(C)n2)cc1Cl [Compound A-166, 3-chloro-N-[5-(5-fluoro-1H-benzimidazol-2-yl)-1-methyl-pyrazol-3-yl]-4-(2-methoxyethoxy)benzamide] | < 100
Cn1nc(NC(=O)c2ccc(OCCO)c(Cl)c2)cc1-c1nc2cc(F)ccc2[nH]1 [Compound A-167, 3-chloro-N-[5-(5-fluoro-1H-benzimidazol-2-yl)-1-methyl-pyrazol-3-yl]-4-(2-hydroxyethoxy)benzamide] | < 100
Cn1nc(NC(=O)c2ccc(N3CCC(N4CCOCC4)CC3)nc2)cc1-c1nc2cc(F)ccc2[nH]1 [Compound A-168, N-[5-(5-fluoro-1H-benzimidazol-2-yl)-1-methyl-pyrazol-3-yl]-6-(4-morpholino-1-piperidyl)pyridine-3-carboxamide] | 100 to 300
CN(C1CCN(c2ccc(C(=O)Nc3cc(-c4nc5ccccc5[nH]4)[nH]n3)cn2)CC1)S(C)(=O)=O [Compound A-169, N-[5-(1H-benzimidazol-2-yl)-1H-pyrazol-3-yl]-6-[4-[methyl(methyl-sulfonyl)amino]-1-piperidyl]pyridine-3-carboxamide] | 100 to 300
Cn1nc(NC(=O)c2ccc(N3CCC(N4CCOCC4)CC3)nc2)cc1-c1nc2cccc(F)c2[nH]1 [Compound A-173] | 100 to 300
COCCn1nc(NC(=O)c2ccc(OC)c(Cl)c2)cc1-c1nc2ccccc2[nH]1 [Compound A-175, N-[5-(1H-benzimidazol-2-yl)-1-(2-methoxyethyl)pyrazol-3-yl]-3-chloro-4-methoxy-benzamide] | > 1000
COCCn1nc(NC(=O)c2ccc(N3CC(OC)C3)nc2)cc1-c1nc2ccccc2[nH]1 [Compound A-176, N-[5-(1H-benzimidazol-2-yl)-1-(2-methoxyethyl)pyrazol-3-yl]-6-(3-methoxyazetidin-1-yl)pyridine-3-carboxamide] | > 1000
COCCN1CCN(c2ccc(C(=O)Nc3cc(-c4nc5ccccc5[nH]4)n(CCOC)n3)cn2)CC1 [Compound A-178, N-[5-(1H-benzimidazol-2-yl)-1-(2-methoxyethyl)pyrazol-3-yl]-6-[4-(2-methoxyethyl)piperazin-1-yl]pyridine-3-carboxamide] | 300 to 1000
COCCn1nc(NC(=O)c2ccc(N3CCN(C)CC3)cc2)cc1-c1nc2ccccc2[nH]1 [Compound A-185, N-[5-(1H-benzimidazol-2-yl)-1-(2-methoxyethyl)pyrazol-3-yl]-4-(4-methylpiperazin-1-yl)benzamide] | > 1000
COc1cc(F)c2[nH]c(-c3cc(NC(=O)c4ccc(N5CC(OC)C5)nc4)nn3C)nc2c1 [Compound A-187, N-[5-(7-fluoro-5-methoxy-1H-benzimidazol-2-yl)-1-methyl-pyrazol-3-yl]-6-(3-methoxyazetidin-1-yl)pyridine-3-carboxamide] | 300 to 1000
COc1cc(F)c2[nH]c(-c3cc(NC(=O)c4ccc(N5CC(OC)C5)nc4)n[nH]3)nc2c1 [Compound A-188, N-[5-(7-fluoro-5-methoxy-1H-benzimidazol-2-yl)-1H-pyrazol-3-yl]-6-(3-methoxyazetidin-1-yl)pyridine-3-carboxamide] | > 1000
COc1cc(F)c2[nH]c(-c3cc(NC(=O)c4ccc(N5CCC(OC)CC5)nc4)nn3C)nc2c1 [Compound A-189, N-[5-(7-fluoro-5-methoxy-1H-benzimidazol-2-yl)-1-methyl-pyrazol-3-yl]-6-(4-methoxy-1-piperidyl)pyridine-3-carboxamide] | < 100
COCCN1CCN(c2ccc(C(=O)Nc3cc(-c4nc5cc(OC)cc(F)c5[nH]4)n(C)n3)cn2)CC1 [Compound A-190, N-[5-(7-fluoro-5-methoxy-1H-benzimidazol-2-yl)-1-methyl-pyrazol-3-yl]-6-[4-(2-methoxyethyl)piperazin-1-yl]pyridine-3-carboxamide] | < 100
COc1cc(F)c2[nH]c(-c3cc(NC(=O)c4ccc(N5CCN(C)CC5)nc4)nn3C)nc2c1 [Compound A-191, N-[5-(7-fluoro-5-methoxy-1H-benzimidazol-2-yl)-1-methyl-pyrazol-3-yl]-6-(4-methylpiperazin-1-yl)pyridine-3-carboxamide] | 100 to 300

The remaining lines, values ahead:

IC50 [nM] | SMILES
> 1000 | O=C(O)CN1CCN(c2ccc(C(=O)Nc3cc(-c4nc5ccccc5[nH]4)[nH]n3)cn2)CC1 [Compound A-156, 2-[4-[5-[[5-(1H-benzimidazol-2-yl)-1H-pyrazol-3-yl]carbamoyl]-2-pyridyl]piperazin-1-yl]acetic acid]
< 100 | COC1CCN(c2ccc(C(=O)Nc3cc(-c4nc5ccccc5[nH]4)[nH]n3)cn2)CC1 [Compound A-159, N-[5-(1H-benzimidazol-2-yl)-1H-pyrazol-3-yl]-6-(4-methoxy-1-piperidyl)-pyridine-3-carboxamide]
100 to 300 | CC(=O)N(C)C1CCN(c2ccc(C(=O)Nc3cc(-c4nc5ccccc5[nH]4)[nH]n3)cn2)CC1 [Compound A-170, 6-[4-[acetyl(methyl)amino]-1-piperidyl]-N-[5-(1H-benzimidazol-2-yl)-1H-pyrazol-3-yl]pyridine-3-carboxamide]
< 100 | O=C(Nc1cc(-c2nc3ccccc3[nH]2)[nH]n1)c1ccc(N2CCN(C3COC3)CC2)nc1 [Compound A-171, N-[5-(1H-benzimidazol-2-yl)-1H-pyrazol-3-yl]-6-[4-(oxetan-3-yl)-piperazin-1-yl]pyridine-3-carboxamide]
< 100 | O=C(Nc1cc(-c2nc3ccccc3[nH]2)[nH]n1)c1ccc(N2CCC(N3CCOCC3)CC2)nc1 [Compound A-172, N-[5-(1H-benzimidazol-2-yl)-1H-pyrazol-3-yl]-6-(4-morpholino-1-piperidyl)pyridine-3-carboxamide]
< 100 | COCCN1CCN(c2ccc(C(=O)Nc3cc(-c4nc5ccccc5[nH]4)[nH]n3)cc2)CC1 [Compound A-174, N-[5-(1H-benzimidazol-2-yl)-1H-pyrazol-3-yl]-4-[4-(2-methoxyethyl)-piperazin-1-yl]benzamide]
> 1000 | CN1CCN(c2ccc(C(=O)Nc3cc(-c4nc5ccccc5[nH]4)[nH]n3)nn2)CC1 [Compound A-177, N-[5-(1H-benzimidazol-2-yl)-1H-pyrazol-3-yl]-6-(4-methylpiperazin-1-yl)pyridazine-3-carboxamide]
100 to 300 | CN1CCN(c2cnc(C(=O)Nc3cc(-c4nc5ccccc5[nH]4)[nH]n3)cn2)CC1 [Compound A-179, N-[5-(1H-benzimidazol-2-yl)-1H-pyrazol-3-yl]-5-(4-methylpiperazin-1-yl)pyrazine-2-carboxamide]
100 to 300 | CN1CCN(c2ncc(C(=O)Nc3cc(-c4nc5ccccc5[nH]4)[nH]n3)cn2)CC1 [Compound A-180, N-[5-(1H-benzimidazol-2-yl)-1H-pyrazol-3-yl]-2-(4-methylpiperazin-1-yl)pyrimidine-5-carboxamide]
< 100 | O=C(Nc1cc(-c2nc3ccccc3[nH]2)[nH]n1)c1ccc(N2CCN(CCO)CC2)cc1 [Compound A-181]
300 to 1000 | COCCn1nc(NC(=O)c2ccc(N3CCN(C)CC3)nc2)cc1-c1nc2ccccc2[nH]1 [Compound A-182, N-[5-(1H-benzimidazol-2-yl)-1-(2-methoxyethyl)pyrazol-3-yl]-6-(4-methyl-piperazin-1-yl)pyridine-3-carboxamide]
> 1000 | COC1CN(c2ncc(C(=O)Nc3cc(-c4nc5ccccc5[nH]4)[nH]n3)cn2)C1 [Compound A-183, N-[5-(1H-benzimidazol-2-yl)-1H-pyrazol-3-yl]-2-(3-methoxyazetidin-1-yl)pyrimidine-5-carboxamide]
> 1000 | CN1CCN(c2ccc(C(=O)Nc3cc(-c4nc5ccccc5[nH]4)[nH]n3)nc2)CC1 [Compound A-184, N-[5-(1H-benzimidazol-2-yl)-1H-pyrazol-3-yl]-5-(4-methylpiperazin-1-yl)pyridine-2-carboxamide]
> 1000 | COC1CN(c2cnc(C(=O)Nc3cc(-c4nc5ccccc5[nH]4)[nH]n3)cn2)C1 [Compound A-186, N-[5-(1H-benzimidazol-2-yl)-1H-pyrazol-3-yl]-5-(3-methoxyazetidin-1-yl)pyrazine-2-carboxamide]
